Data from PubChem BioAssay (NCI).
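Tested at 5 concentrations; 48 h exposure; 96-well plates; endpoints linearly interpolated, else capped at highest concentration. GI50 = concentration required for 50% inhibition of growth. The concentration for full growth arrest is given as TGI.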

Assays:
Experiment in all cases: growth of human tumour cells (NCI), 48 h
A549 NSCLC = test system: A549 NSCLC
ACHN renal = test system: ACHN renal
HCC-2998 colon = test system: HCC-2998 colon
HS 578T breast = test system: HS 578T breast
KM12 colon = test system: KM12 colon
NCI-H522 lung = test system: NCI-H522 lung
PC-3 prostate = test system: PC-3 prostate
IGROV1 ovarian = test system: IGROV1 ovarian
RPMI-8226 leukemia = test system: RPMI-8226 leukemia
DU-145 prostate = test system: DU-145 prostate

| Compound | GI50 (A549 NSCLC) [µM] | TGI (A549 NSCLC) [µM] | GI50 (ACHN renal) [µM] | TGI (ACHN renal) [µM] | GI50 (HCC-2998 colon) [µM] | TGI (HCC-2998 colon) [µM] | GI50 (HS 578T breast) [µM] | TGI (HS 578T breast) [µM] | GI50 (KM12 colon) [µM] | TGI (KM12 colon) [µM] | GI50 (NCI-H522 lung) [µM] | TGI (NCI-H522 lung) [µM] | GI50 (PC-3 prostate) [µM] | TGI (PC-3 prostate) [µM] | TGI (IGROV1 ovarian) [µM] | TGI (RPMI-8226 leukemia) [µM] | GI50 (DU-145 prostate) [µM] | TGI (DU-145 prostate) [µM] | GI50 (IGROV1 ovarian) [µM] | GI50 (RPMI-8226 leukemia) [µM] |
| --- | --- | --- | --- | --- | --- | --- | --- | --- | --- | --- | --- | --- | --- | --- | --- | --- | --- | --- | --- | --- |
| CC1(C)C2CCC13C(=O)C1OC3(C2)C2C(=O)c3cc4ccccc4cc3C(=O)C12 (stereo not given) | 26.2 | 76.3 | 10.4 | 26.3 | 8.53 | > 100 | 53.7 | > 100 | 3.79 | 25.1 | 23.1 | > 100 | 3.85 | 27.8 |  |  |  |  |  |  |
| O=C1CC(O)CC(=O)C1=C(O)CCCCCCCCCCc1ccccc1 (stereo not given) |  | > 100 |  | > 100 |  | > 100 |  |  |  | > 100 |  | > 100 |  |  | > 100 | > 100 |  |  |  |  |
| CCCCCCCCNc1cc2c3c(c1)CCCN3CCC2 | 4.26 | 19.3 | 3.22 | 17.7 | 5.41 | 26.8 |  |  | 1.63 | 10.6 | 0.594 | 6.47 | 0.926 | 12.8 | 8.3 | > 100 | 2.61 | 12.8 | 1.77 | 5.55 |
| O=C(O)CCN(CCCCN(CCC(=O)O)CCC(=O)O)CCC(=O)O |  | > 100 |  | > 100 |  | > 100 |  |  |  | > 100 |  | > 100 |  |  | > 100 | > 100 |  |  |  |  |
| CCc1ccccc1NC(=O)C1=C(C)NC(C)=C(C(=O)Nc2ccccc2CC)C1c1ccccc1Cl |  | > 100 |  | > 100 |  | > 100 |  |  |  | > 100 |  | > 100 |  |  | > 100 | > 100 |  |  |  |  |
| O.O.[NH-]C1(C(=O)O)CCCC1.[NH-]C1(C(=O)O)CCCC1.[Ni+2] |  | > 100 | > 100 | > 100 |  |  | > 100 | > 100 |  | > 100 |  | > 100 | > 100 | > 100 | > 100 | > 100 | > 100 | > 100 |  |  |
| O=C(NCCCCNc1cccccc1=O)OCc1ccccc1 |  | > 100 |  | > 100 |  | > 100 |  |  |  | > 100 |  | > 100 |  |  | > 100 | > 100 |  |  |  |  |
| COc1cc(Br)c(C=Nc2cccc3cc(OC)c(OC)cc23)cc1OC |  | > 100 |  | > 100 |  | > 100 |  |  |  | > 100 |  | > 100 |  |  | > 100 | > 100 |  |  |  |  |
| CS(=O)(=O)OC1CCC2(C#N)CCC1C2=O (stereo not given) |  | > 100 |  | > 100 |  | > 100 |  |  |  | > 100 |  | > 100 |  |  | > 100 | 44.4 |  |  |  |  |
| C=C1C(=O)O[C@@H]2C[C@@H](C)[C@@H]3C=CC(=O)[C@@]3(C)[C@@H](O)[C@H]12 |  | 11.8 |  | 6.33 |  | 2.85 |  |  |  | 3.31 |  | 0.663 |  | 7.22 | 8.1 | 2.81 |  | 15.5 |  |  |
| N.N.N.N.[Co+3].[N-]=[N+]=[N-].[N-]=[N+]=[N-].[N-]=[N+]=[N-] | > 100 | > 100 | 52 | > 100 | > 100 | > 100 |  |  | > 100 | > 100 | 39.7 | > 100 |  |  | > 100 | > 100 |  |  | > 100 | > 100 |
| NC(=O)C(=O)N/N=C1\C(=O)N(c2ccc(Cl)cc2Cl)C(=O)C1C(=O)Nc1ccc(Cl)cc1Cl (stereo not given) |  | > 100 |  | > 100 |  | > 100 |  |  |  | > 100 |  | > 100 |  |  | > 100 | > 100 |  |  |  |  |
| CC1=C(c2ccccc2)C(c2ccccc2)=C(c2ccccc2)C2(c3ccccc3)C(=O)C(C)CN12 (stereo not given) |  | > 100 |  | > 100 |  | > 100 |  |  |  | > 100 |  | 72.4 |  |  | > 100 | > 100 |  |  |  |  |
| CCN(CC)c1c(C(=O)/C=C/c2ccc(Cl)cc2)c(-c2ccccc2)nn(C)c1=O |  | 3.89 |  | 3.38 |  | 3.24 |  |  |  |  |  | 2.98 |  |  | 4.21 | 5.2 |  |  |  |  |
| CN1CCC2(CC1)ONC1=NCCN12 |  |  | 23.7 | 74.5 | 15.8 | 43.8 |  |  | 26.6 | > 100 | 29.3 | > 100 | 26 | 66.5 |  |  | 51.3 | > 100 |  |  |
| CCCCCCCCCCCc1nnc(N)o1 |  | > 100 |  | > 100 |  | > 100 |  |  |  | > 100 |  | > 100 |  |  | > 100 | > 100 |  |  |  |  |
| OC(Cc1ccncc1)C(Cl)(Cl)Cl (stereo not given) | > 100 | > 100 | > 100 | > 100 |  |  | > 100 | > 100 | > 100 | > 100 | > 100 | > 100 | 21.8 | > 100 |  | > 100 | > 100 | > 100 |  | 0.0586 |
| CC(C)=CC1C[C@H](C2CC=C3C2(C)CCC2[C@@]3(C)C(=O)CC3[C@]2(C)C=CC(=O)[C@]3(C)CO)CO1 (stereo not given in full) |  | 52.4 |  | 30.7 |  | 30 |  |  |  | 19.9 |  | 8.71 |  |  | 29.5 | 15.3 |  |  |  |  |
| O=C(O)CCCSC(=O)Nc1ccc(N=Nc2ccccc2)cc1 |  | > 100 |  | > 100 |  | > 100 |  |  |  | > 100 |  | > 100 |  |  |  | > 100 |  |  |  |  |
| COc1ccc(C23C(=O)c4ccccc4N2O[C@H]2C(=O)N(c4ccccc4)C(=O)[C@H]23)cc1 (stereo not given in full) |  | > 100 |  | > 100 |  | > 100 |  |  |  | > 100 |  | 87.3 |  |  | > 100 | > 100 |  |  |  |  |
| C=CCNC(=O)N(CCCCC(NC(C)=O)C(=O)NCc1ccccc1)Cc1ccccc1 (stereo not given) |  | > 100 |  | > 100 |  |  |  |  |  | > 100 |  | > 100 |  |  | > 100 | > 100 |  |  |  |  |
| COC(=O)CC1C[C@H](C#N)N(C(=O)c2ccccc2)C[C@@H]1CC[N+](=O)[O-] (stereo not given in full) |  | > 100 |  | > 100 |  | > 100 |  |  |  | > 100 |  |  |  |  | > 100 | > 100 |  |  |  |  |
| ClCc1cccc2c(CCl)cccc12 | 8.77 | 24 | 2.19 | 6.21 | 2.48 | 8.3 | 1.86 | 6.7 | 1.55 | 3.48 | 2.83 | 16.3 | 4.21 | 19.7 |  | 7.41 | 1.76 | 4.08 |  | 2 |
